The values below are quoted from earlier work in patent US11229595B2, “Skin barrier preparation and method therefor” (Johnson & Johnson Consumer Inc., priority 2019, dated 2022).

The series relates to skin. The settings on record: eight volunteers, four compounds compared, patches during 24 hours.

On to `CN(C)CCCN1c2ccccc2CCc2ccccc21` [imipramine], for which the “increase of TEWL” value was “increased the least TEWL”.

In the case of `CCCCCCCCC(=O)O` [nonanoic acid], the “increase of TEWL” value was “increased the least TEWL”.
